The assay has as its system Plasmodium berghei. The experiment in a line: Luciferase/luciferin-expressing antifolate-resistant parasites were used to infect a culture of HepG2 cells that were pre-incubated with compounds. Infected hepatocytes emit light due to the luciferase reaction. Assay results are presented as the percent inhibition of light emission compared to control. […]. The class given is functional. Conditions: sporozoite; for IC90: read-out: LUCIFERASE INFECTION ASSAY - IC90.

Where [1] appears, read: read-out: LUCIFERASE INFECTION ASSAY - IC50.

`CC(C)CC(=O)NC(=S)Nc1ccc(S(=O)(=O)N(C)Cc2ccccc2)cc1`: the IC90 is 4.58 µM. The half-inhibitory concentration (IC50) (HEPG2TOX_HILL_SLOPE 1.27, HEPG2TOX_R_SQUARED 0.987, PBLUC_HILL_SLOPE 1.32, PBLUC_R_SQUARED 0.74, read-out: LUCIFERASE INFECTION ASSAY - IC50) turned out to be 0.868 µM.
As to `CNC(=O)c1ccc(CN(Cc2ccco2)C(=O)Cc2ccc(-c3ccccc3)cc2)cc1`, the IC90 is above 10 µM. Further, the IC50 (FFLUC_HILL_SLOPE 7.09, FFLUC_R_SQUARED 0.0104, PBLUC_HILL_SLOPE 1.93, PBLUC_R_SQUARED 0.808, read-out: LUCIFERASE INFECTION ASSAY - IC50) came out at 3.68 µM.
Regarding `CNc1snc(C)c1C(=O)OCc1csc(-c2ccccc2)n1`, the IC90 turned out to be 1.26 µM. The IC50 (HEPG2TOX_HILL_SLOPE 0.385, HEPG2TOX_R_SQUARED 0.759, PBLUC_HILL_SLOPE 1.19, PBLUC_R_SQUARED 0.693, read-out: LUCIFERASE INFECTION ASSAY - IC50) is 0.2 µM.
As to `Cc1ccc(NC(=O)c2cc(-c3ccc4c(c3)OCCO4)nc3c2cnn3C(C)C)nc1`, the IC90 is above 10 µM. Besides, the IC50 under setting [1] was above 10 µM.
Consider `CN(C)CCNC(=O)c1ccc(-c2cc(-c3cc4ccccc4s3)cnc2N)cc1`, for which the IC90 is above 7.92 µM. Also, the IC50 under setting [1] is above 7.92 µM.
In the case of `Cc1nc(NC(=O)CCc2c[nH]c3ccccc23)sc1-c1ccccn1`, the 90% effect concentration (IC90) came to 3.51 µM. The concentration for half-maximal inhibition (IC50) (HEPG2TOX_HILL_SLOPE 2, HEPG2TOX_R_SQUARED 0.799, PBLUC_HILL_SLOPE 14.5, PBLUC_R_SQUARED 0.715, read-out: LUCIFERASE INFECTION ASSAY - IC50) stood at 3.02 µM.
As to `Nc1nc(N)nc(COC(=O)c2c3c(nc4ccccc24)/C(=C/c2c(F)cccc2Cl)CC3)n1`, the 90% effect concentration (IC90) is above 10 µM. Besides, the IC50 (HEPG2TOX_HILL_SLOPE 0.332, HEPG2TOX_R_SQUARED 0.762, PBLUC_HILL_SLOPE 7.86, PBLUC_R_SQUARED 0.0482, read-out: LUCIFERASE INFECTION ASSAY - IC50) was above 10 µM.
With `CC(C)c1ccc(Nc2ncc3c(n2)CCN(C(=O)Nc2ccc(F)c(Cl)c2)C3)cc1`, the IC90 was above 7.5 µM. The IC50 under setting [1] is above 7.5 µM.
Regarding `Oc1cccc(-c2cnc3cnc(-c4cccnc4)cn23)c1`, the IC90 was above 11.4 µM. For the same compound, the IC50 (PBLUC_HILL_SLOPE 14.9, PBLUC_R_SQUARED 0.072, read-out: LUCIFERASE INFECTION ASSAY - IC50) stood at 10.8 µM.
Take `Cn1c(NCC2CC2)nc2cnc(Nc3cccc(Oc4ccccc4)c3)cc21`: the IC90 was determined as 3.77 µM. Besides, the IC50 (HEPG2TOX_HILL_SLOPE 1.32, HEPG2TOX_R_SQUARED 0.983, PBLUC_HILL_SLOPE 3.67, PBLUC_R_SQUARED 0.52, read-out: LUCIFERASE INFECTION ASSAY - IC50) was found to be 2.07 µM.
As to `CN(c1ccccc1)S(=O)(=O)c1cc(C(=O)c2nnc(-c3ccc(Cl)cc3)o2)ccc1Cl`, the IC90 is above 10 µM. Further, under setting [1], the IC50 is above 10 µM.
Take `CCOC(=O)Cc1nn(Cc2nc(-c3ccc(C(F)(F)F)cc3)cs2)c(=O)c2ccccc12`: the IC90 was above 6.97 µM. Besides, the IC50 under setting [1] was above 6.97 µM.
As to `Cn1ccc2cc(-c3cn4c(-c5ccncc5)cnc4cn3)ccc21`, the IC90 is above 10.1 µM. Under setting [1], the IC50 was above 10.1 µM.
In the case of `COc1ccc(Sc2sc(C(C)=O)cc2[N+](=O)[O-])cc1`, the IC90 is above 10.7 µM. The IC50 under setting [1] is above 10.7 µM.
Regarding `COc1cc(/C=C/C(=O)OCC(=O)Nc2cc(Cl)cc(Cl)c2)cc(OC)c1OC`, the IC90 is above 10 µM. In addition, under setting [1], the IC50 is above 10 µM.
Consider `Cc1ccc(-c2nn(-c3ccccc3)c3[nH]c(-c4ccccc4)cc(=O)c23)cc1`, for which the IC90 was above 10 µM. The IC50 (FFLUC_HILL_SLOPE 0.301, FFLUC_R_SQUARED 0.0383, PBLUC_HILL_SLOPE 15, PBLUC_R_SQUARED 0.1, read-out: LUCIFERASE INFECTION ASSAY - IC50) amounted to 9.8 µM.
As to `NS(=O)(=O)c1ccc(CCNc2nn3c(-c4ccc(Cl)cc4)cnc3s2)cc1`, the IC90 was above 7.6 µM. The IC50 under setting [1] is above 7.6 µM.
`COC(=O)c1cnc(Sc2n[nH]c(=O)n2-c2cccc(C(F)(F)F)c2)c([N+](=O)[O-])c1`: the 90% effect concentration (IC90) is above 7.48 µM. Further, the IC50 under setting [1] was above 7.48 µM.
With `CS(=O)(=O)c1ccc(S(=O)(=O)Nc2cccc3c2CCCC3)cc1`, the IC90 is above 10 µM. Besides, the IC50 under setting [1] is above 10 µM.
Regarding `Fc1ccc(COc2ccc(Cl)cc2CNCc2ccccn2)cc1`, the IC90 is above 9.25 µM. For the same compound, the IC50 (PBLUC_HILL_SLOPE 3.23, PBLUC_R_SQUARED 0.405, read-out: LUCIFERASE INFECTION ASSAY - IC50) worked out at 6.55 µM.
As to `COCCNC(=S)NNc1ccc2ccccc2c1`, the IC90 was 1.19 µM. Moreover, the half-inhibitory concentration (IC50) (HEPG2TOX_HILL_SLOPE 2.26, HEPG2TOX_R_SQUARED 0.95, PBLUC_HILL_SLOPE 42.9, PBLUC_R_SQUARED 0.446, read-out: LUCIFERASE INFECTION ASSAY - IC50) came to 1.13 µM.
On to `N#C/C(=N\Nc1cccc(C(F)(F)F)c1)C(=O)C1CC1`, for which the IC90 came to 10.7 µM. For the same compound, under “HEPG2TOX_HILL_SLOPE 1.67, HEPG2TOX_R_SQUARED 0.925, PBLUC_HILL_SLOPE 4.09, PBLUC_R_SQUARED 0.467, read-out: LUCIFERASE INFECTION ASSAY - IC50”, the half-inhibitory concentration (IC50) was determined as 6.27 µM.
`CNc1snc(C)c1C(=O)OCc1cc(Cl)ccc1OC`: the IC90 turned out to be 4.16 µM. Further, for the setting “FFLUC_HILL_SLOPE 8.97, FFLUC_R_SQUARED 0.0554, PBLUC_HILL_SLOPE 11, PBLUC_R_SQUARED 0.441, read-out: LUCIFERASE INFECTION ASSAY - IC50”, the IC50 was found to be 3.41 µM.
Consider `O=C(Nc1ncc(Cc2ccccc2Br)s1)c1ccc2nc[nH]c2c1`, for which the IC90 is above 10 µM. Moreover, for the setting “HEPG2TOX_HILL_SLOPE 2.12, HEPG2TOX_R_SQUARED 0.698, PBLUC_HILL_SLOPE 2.32, PBLUC_R_SQUARED 0.476, read-out: LUCIFERASE INFECTION ASSAY - IC50”, the half-maximal inhibitory concentration (IC50) came to 4.08 µM.
Consider `O=C(c1c[nH]c2ccccc12)N1CCC(Cc2ccccc2)CC1`, for which the IC90 is above 10.4 µM. Under setting [1], the IC50 is above 10.4 µM.
`CC1c2ccsc2CCN1C(=S)NC(=O)c1ccc(Cl)cc1` (stereo unspecified): the IC90 was above 9.4 µM. For the same compound, the IC50 (HEPG2TOX_HILL_SLOPE 6.89, HEPG2TOX_R_SQUARED 0.823, PBLUC_HILL_SLOPE 41.7, PBLUC_R_SQUARED 0.0283, read-out: LUCIFERASE INFECTION ASSAY - IC50) turned out to be 9.18 µM.
For the compound `CCCCCCCCCCCc1nnc(SCc2ccc(C)cc2)n1-c1ccccc1C(F)(F)F`, the IC90 is above 6.55 µM. Under setting [1], the IC50 was above 6.55 µM.
Take `Cc1ccc(C)c(C(=O)C(C)Sc2nnc(-c3cccc(Br)c3)o2)c1` (stereo unspecified): the IC90 came out at 9.4 µM. Further, under “HEPG2TOX_HILL_SLOPE 2.02, HEPG2TOX_R_SQUARED 0.871, PBLUC_HILL_SLOPE 4.17, 0.287, PBLUC_R_SQUARED 0.527, 0.262, read-out: LUCIFERASE INFECTION ASSAY - IC50”, the IC50 was 4.21 µM.
Take `CCc1cc(C(=O)Nc2ncccc2O)sc1C`: the IC90 is above 10 µM. For the same compound, where the note is “FFLUC_HILL_SLOPE 0.955, FFLUC_R_SQUARED 0.833, PBLUC_HILL_SLOPE 2.67, PBLUC_R_SQUARED 0.448, read-out: LUCIFERASE INFECTION ASSAY - IC50”, the IC50 is 4.95 µM.
With `O=C(Cn1ncc(Cl)c(Cl)c1=O)NCC12CC3CC(CC(C3)C1)C2`, the concentration for an effect of 90% (IC90) was above 10 µM. Also, under “FFLUC_HILL_SLOPE 71.8, FFLUC_R_SQUARED 0.575, read-out: LUCIFERASE INFECTION ASSAY - IC50”, the IC50 was above 10 µM.
On to `c1ccc(C(Nc2ncnc3ccsc23)c2cccs2)cc1` (stereo unspecified), for which the IC90 turned out to be 2.58 µM. Moreover, the IC50 under setting [1] is 1.14 µM.
`CN(C)S(=O)(=O)c1cccc(C(=O)Nc2nc3ccc(Oc4ccccc4)cc3s2)c1`: the IC90 was above 10 µM. Besides, where the note is “HEPG2TOX_HILL_SLOPE 15.9, HEPG2TOX_R_SQUARED 0.649, PBLUC_HILL_SLOPE 3.03, PBLUC_R_SQUARED 0.302, read-out: LUCIFERASE INFECTION ASSAY - IC50”, the IC50 was 5.87 µM.
On to `O=C(Nc1cc(-c2cccs2)nn1-c1ccc(I)cc1)C1CCC1`, for which the IC90 is above 7.34 µM. Besides, for the setting “PBLUC_HILL_SLOPE 12.7, PBLUC_R_SQUARED 0.261, read-out: LUCIFERASE INFECTION ASSAY - IC50”, the IC50 turned out to be 6.21 µM.
Regarding `Cn1c(NCc2ccccc2F)nc2cnc(-c3ccc(Cl)cc3)cc21`, the IC90 was above 10 µM. Moreover, the half-maximal inhibitory concentration (IC50) under setting [1] was above 10 µM.
Consider `CC(=O)Nc1cccc(-c2ccnc3c2CC(C(=O)NCc2ccco2)O3)c1` (stereo unspecified), for which the IC90 was determined as 6.23 µM. In addition, the IC50 (FFLUC_HILL_SLOPE 0.324, FFLUC_R_SQUARED 0.726, HEPG2TOX_HILL_SLOPE 3.12, HEPG2TOX_R_SQUARED 0.86, PBLUC_HILL_SLOPE 2.84, PBLUC_R_SQUARED 0.407, read-out: LUCIFERASE INFECTION ASSAY - IC50) came out at 2.87 µM.
As for `CCCN(CC(=O)Nc1cc(-c2ccccc2)sc1C(=O)OCC)Cc1nnc(-c2ccco2)o1`, the IC90 is above 10 µM. Moreover, under “PBLUC_HILL_SLOPE 3.67, PBLUC_R_SQUARED 0.341, read-out: LUCIFERASE INFECTION ASSAY - IC50”, the IC50 was determined as 7.32 µM.
With `CC(O)c1ccc(-c2ccccc2NC(=O)c2ccccn2)s1` (stereo unspecified), the IC90 was above 10 µM. Further, where the note is “HEPG2TOX_HILL_SLOPE 8.65, HEPG2TOX_R_SQUARED 0.867, read-out: LUCIFERASE INFECTION ASSAY - IC50”, the IC50 is above 10 µM.
As for `Cc1ccc(-n2nnnc2SCc2ccccc2Cl)c(C)c1`, the IC90 is above 9.97 µM. Also, for the setting “HEPG2TOX_HILL_SLOPE 1.94, HEPG2TOX_R_SQUARED 0.896, PBLUC_HILL_SLOPE 2.04, PBLUC_R_SQUARED 0.254, read-out: LUCIFERASE INFECTION ASSAY - IC50”, the IC50 was found to be 6.75 µM.

By IC50 is commonly meant the concentration that gives 50% inhibition. Broadly, the IC90 is the concentration needed for an effect of 90%.

Values taken from ChEMBL document CHEMBL4483862, “Open-source discovery of chemical leads for next-generation chemoprotective antimalarials” (2018).
